Test results from PubChem BioAssay AID248 (DTP/NCI, 2004).
Where “and” joins values, the source holds several entries; their conditions need not be identical. Identical values can stand only once. Inconclusive results and toxic doses are left out.

Tested on: L1210 leukemia ip in BDF1 mice, survival T/C
Test: NCI In Vivo Anticancer Drug Screen. Data for tumor model L1210 Leukemia (intraperitoneal) in B6D2F1 (BDF1) mice
Details: endpoint: mean survival time, higher = longer survival
Summary of the method: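 Ratio derived from survival: compound-dosed mice over vehicle-dosed mice, all bearing a transplantable tumor.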

[1] = dose: 100.0 mg/kg/injection, schedule: Q01DX009 (ip), vehicle: saline with Tween-80
[2] = dose: 100.0 mg/kg/injection, schedule: Q04DX003 (ip), vehicle: saline
[3] = dose: 200.0 mg/kg/injection, schedule: Q04DX003 (ip), vehicle: saline
[4] = dose: 200.0 mg/kg/injection, schedule: Q01DX001 (ip), vehicle: carboxymethylcellulose (CMC)
[5] = dose: 400.0 mg/kg/injection, schedule: Q01DX001 (ip), vehicle: carboxymethylcellulose (CMC)
[6] = dose: 100.0 mg/kg/injection, schedule: Q01DX001 (ip), vehicle: saline
[7] = dose: 200.0 mg/kg/injection, schedule: Q01DX001 (ip), vehicle: saline
[8] = dose: 400.0 mg/kg/injection, schedule: Q01DX001 (ip), vehicle: saline

With `CCCCC(C)NC1=C(Cl)C(=O)c2ccccc2C1=O` (stereo unspecified) the T/C (dose: 25.0 mg/kg/injection, schedule: Q01DX009 (ip), vehicle: saline with Tween-80) was 101 % of control, the T/C (dose: 50.0 mg/kg/injection, schedule: Q01DX009 (ip), vehicle: saline with Tween-80) was 93 % of control and the T/C [1] was 87 % of control.

With `Cc1ccc(S/N=C\c2ccccc2O)cc1` the T/C (dose: 50.0 mg/kg/injection, schedule: Q04DX002 (ip), vehicle: Klucel (hydroxypropylcellulose) (HPC)) was 93 % of control, the T/C (dose: 100.0 mg/kg/injection, schedule: Q04DX002 (ip), vehicle: Klucel (hydroxypropylcellulose) (HPC)) was 100 % of control and the T/C (dose: 200.0 mg/kg/injection, schedule: Q04DX002 (ip), vehicle: Klucel (hydroxypropylcellulose) (HPC)) was 107 % of control and 91 % of control. For the same molecule, the T/C (dose: 400.0 mg/kg/injection, schedule: Q04DX002 (ip), vehicle: Klucel (hydroxypropylcellulose) (HPC)) was 91 % of control.

With `CCCNCCN` the T/C (dose: 50.0 mg/kg/injection, schedule: Q01DX009 (ip), vehicle: saline) was 98 % of control, the T/C (dose: 100.0 mg/kg/injection, schedule: Q01DX009 (ip), vehicle: saline) was 102 % of control and the T/C [2] was 97 % of control. The T/C [3] was 99 % of control.

`Cc1ccc2nc(NC(=O)N(CCCl)N=O)sc2c1` was tested, and the T/C (dose: 53.0 mg/kg/injection, schedule: Q01DX009 (ip), vehicle: carboxymethylcellulose (CMC)) was 103 % of control, the T/C (dose: 80.0 mg/kg/injection, schedule: Q01DX009 (ip), vehicle: carboxymethylcellulose (CMC)) was 113 % of control and the T/C (dose: 118.0 mg/kg/injection, schedule: Q01DX001 (ip), vehicle: other) was 150 % of control. For the same molecule, the T/C (dose: 118.0 mg/kg/injection, schedule: Q01DX006 (ip), vehicle: other) was 193 % of control, the T/C (dose: 120.0 mg/kg/injection, schedule: Q01DX009 (ip), vehicle: carboxymethylcellulose (CMC)) was 114 % of control and the T/C (dose: 180.0 mg/kg/injection, schedule: Q01DX001 (ip), vehicle: carboxymethylcellulose (CMC)) was 157 % of control. The T/C [4] was 158 % of control, the T/C (dose: 266.0 mg/kg/injection, schedule: Q01DX006 (ip), vehicle: other) was 98 % of control and the T/C (dose: 266.0 mg/kg/injection, schedule: Q01DX009 (ip), vehicle: carboxymethylcellulose (CMC)) was 161 % of control. For the same molecule, the T/C [5] was 170 % of control and the T/C (dose: 400.0 mg/kg/injection, schedule: Q01DX006 (ip), vehicle: other) was 90 % of control.

With `Cc1cc[n+](C)c2ccccc12` the T/C (dose: 9.37 mg/kg/injection, schedule: Q01DX009 (ip), vehicle: saline with Tween-80) was 101 % of control, the T/C (dose: 18.75 mg/kg/injection, schedule: Q01DX009 (ip), vehicle: saline with Tween-80) was 112 % of control and the T/C (dose: 37.5 mg/kg/injection, schedule: Q01DX009 (ip), vehicle: saline with Tween-80) was 100 % of control. The T/C (dose: 37.5 mg/kg/injection, schedule: Q04DX003 (ip), vehicle: saline) was 100 % of control and the T/C (dose: 75.0 mg/kg/injection, schedule: Q01DX001 (ip), vehicle: saline) was 103 % of control.

With `Cc1cc(C)c(C(=O)O)c(C)c1` the T/C [6] was 100 % of control, the T/C [1] was 93 % of control and the T/C [7] was 96 % of control. For the same molecule, the T/C (dose: 200.0 mg/kg/injection, schedule: Q01DX009 (ip), vehicle: saline with Tween-80) was 94 % of control, the T/C [8] was 96 % of control and the T/C (dose: 400.0 mg/kg/injection, schedule: Q01DX009 (ip), vehicle: saline with Tween-80) was 94 % of control.

In the case of `CCOC(=O)C(=O)c1c2cn(O)nc(OC)c-2nc1[N+](=O)[O-]`, the T/C (dose: 12.5 mg/kg/injection, schedule: Q04DX002 (ip), vehicle: saline with Tween-80) is reported as 89 % of control, the T/C (dose: 25.0 mg/kg/injection, schedule: Q04DX002 (ip), vehicle: saline with Tween-80) is reported as 96 % of control and the T/C (dose: 50.0 mg/kg/injection, schedule: Q04DX002 (ip), vehicle: saline with Tween-80) is reported as 96 % of control.

`COC(=O)CCNS(=O)(=O)c1ccc(C)cc1` was tested, and the T/C (dose: 50.0 mg/kg/injection, schedule: Q01DX001 (ip), vehicle: carboxymethylcellulose (CMC)) was 92 % of control, the T/C (dose: 100.0 mg/kg/injection, schedule: Q01DX001 (ip), vehicle: carboxymethylcellulose (CMC)) was 94 % of control and the T/C [4] was 94 % of control. For the same molecule, the T/C [5] was 92 % of control.

With `CC(C)(C)c1cc(CN2CCCC(O)C2)c(O)c(-c2ccccc2)c1` (stereo unspecified) the T/C [2] was 98 % of control and the T/C [3] was 98 % of control.

`Cc1ccc(Br)cc1C(c1cc(Br)ccc1C)C(O)C(O)C(O)C(O)CO` (stereo unspecified) was tested, and the T/C (dose: 50.0 mg/kg/injection, schedule: Q01DX001 (ip), vehicle: saline) was 106 % of control, the T/C [6] was 106 % of control and the T/C [7] was 110 % of control. The T/C [8] was 98 % of control.
